Values of other authors in patent US8022220B2, “Process for production of piperidine derivatives” (Albany Molecular Research, Inc., priority 1995, dated 2011).

Tested on: delayed rectifier potassium current
Settings: concentrations up to 5 μM; isolated feline ventricular myocytes

For CC(C)(C(=O)O)c1ccc(C(O)CCCN2CCC(C(O)(c3ccccc3)c3ccccc3)CC2)cc1 (stereo not drawn) [terfenadine carboxylic acid metabolite, 4-[4-[4-(hydroxydiphenylmethyl)-1-piperidinyl]-1-hydroxybutyl]-α-α-dimethylphenylacetic acid], the “effect on the potassium current” value is given as “no significant effect”.
